Test results from US6861524B2, “Acyl and sulfonyl derivatives of 6,9-disubstituted 2-(trans-1,4-diaminocyclohexyl)-purines and their use as antiproliferative agents” (Aventis Pharmaceuticals Inc., priority 2000, dated 2005).
Marks after values point to notes of the source that are not given here. Values belong to the compound of their own block, whether it stands above or below them.

What was measured:
[1] = Red blood cell binding (RBC to plasma ratio), human whole blood; format: in vitro ADME; conditions: 30 minutes at 37° C., nominal 500 ng/ml
Experimental: (§1) Compounds, including one positive control, are assessed for red blood cell (RBC) uptake, using a modified procedure based on the protocol reported in Sun, J. X. S., et al. High-performance liquid chromatographic analysis, plasma protein binding and red blood cell partitioning of phenprobamate. Biopharmaceutics and Drug Disposition, 8 (1987) 341-351.
(§2) Briefly, RBC uptake is evaluated by comparison of the levels in spiked plasma (n=3) and plasma isolated from spiked whole blood (n=3). Compounds are incubated with human and mouse whole blood, respectively, for 30 minutes at 37° C. using a nominal concentration of 500 ng/ml. Following centrifugation, the plasma is removed and submitted for analysis. Each compound is also spiked into blank plasma at a nominal concentration of 500 ng/ml, and submitted for analysis. Levels in the two plasma samples (Cp′ and Cp in the equation below) and the blood hematocrit are used to determine the red blood cell to plasma ratio (Crbc/Cp). [formula] In equation 1, Cp′ is the level of drug in the spiked “blank” plasma, Cp is the level of drug in the plasma of spiked whole blood, and H is the hematocrit. The hematocrit values are determined as 0.4 for human whole blood and 0.41 for mouse whole blood. The samples are analyzed with ESI LC/MS, using positive ion detection with an internal standard.
(§3) The red blood cell to plasma ratio is determined for each compound using equation 1. Tables 6 and 7 summarize the respective mean Crbc/Cp values and standard deviations for mouse and human whole blood, respectively, in descending order based on the red blood cell to plasma ratio, where “*” denotes Positive Control, and “ND” denotes Not Determined. MDL 108552 is included as a positive control for red blood cell uptake.

[2] = Plasma pharmacokinetics in mice after single intravenous cassette doses; conditions: for Mean Conc. in plasma / Mean concentration in plasma / concentration at 0.083 h / concentration at 0.25 h / concentration at 0.5 h / concentration at 1 h / concentration at 3 h / concentration at 6 h / concentration at 8 h: mice; for Mean concentration in plasma: single 18 mg/kg intravenous cassette dose (Cassette #1); for concentration at 0.083 h / concentration at 0.25 h / concentration at 0.5 h / concentration at 1 h / concentration at 3 h / concentration at 6 h / concentration at 8 h / AUC(0-inf) / Cmax / half-life: male, Hsd:ICR (CD-1), mouse, plasma, 3 mg/kg; for concentration at 0.083 h / concentration at 0.25 h / concentration at 0.5 h / concentration at 1 h / concentration at 3 h / concentration at 6 h / concentration at 8 h: intravenous, Mean Conc. in plasma; for AUC(0-inf) / Cmax / half-life: iv; for AUC(0-inf): AUC0-∞; for Cmax: Cmax (highest measured value); for half-life: t1/2, λz
[3] = Red blood cell binding (RBC to plasma ratio), mouse whole blood; format: in vitro ADME; conditions: 30 minutes at 37° C., nominal 500 ng/ml, hematocrit 0.41
Experimental: as §1, §2, §3

[4] = Cassette #2, single 18 mg/kg iv cassette dose (3 mg/kg/compound), 8 h
[5] = Cassette #2, single 18 mg/kg iv cassette dose (3 mg/kg/compound), 24 h
[6] = 24 h, BLQ = below assay quantification limit (approx. 1 ng/ml)
[7] = mouse plasma, iv Cassette #2, 3 mg/kg/compound (18 mg/kg total dose)
[8] = mouse plasma, iv Cassette #3, 3 mg/kg/compound (15 mg/kg total dose)
[9] = mouse plasma, iv Cassette #4, 3 mg/kg/compound (15 mg/kg total dose)

Mean Red Blood Cell to Plasma Ratio [1]: 4.1 | Mean Conc. in plasma [2, 4]: BLQ^a | Mean Conc. in plasma [2, 5]: BLQ^a
SMILES: CCOC(=O)c1ccc(NC(=O)N2CCC(Nc3nc(N[C@H]4CC[C@H](N)CC4)nc4c3ncn4C3CCCC3)CC2)cc1.Cl.Cl [Compound 154, trans-4-[(1-{4-[2-(4-Amino-cyclohexylamino)-9-cyclopentyl-9H-purin-6-ylamino]-piperidine-1-yl}-methanoyl)-amino]-benzoic acid ethyl ester dihydrochloride]

Mean Red Blood Cell to Plasma Ratio [1]: 5.0 | Mean Red Blood Cell to Plasma Ratio [3]: 2.4 | Mean concentration in plasma [2, 6]: BLQ
SMILES: Cl.Cl.N#Cc1ccc(S(=O)(=O)N2CCC(Nc3nc(N[C@H]4CC[C@H](N)CC4)nc4c3ncn4C3CCCC3)CC2)cc1 [Compound 109, trans-N^2-(4-Amino-cyclohexyl)-9-cyclopentyl-N^6-[1-(4-cyano-benzenesulfonyl)-piperidin-4-yl]-9H-purine-2,6-diamine dihydrochloride]

concentration at 0.083 h ([2]; Cassette #2, single 18 mg/kg iv cassette dose (3 mg/kg/compound), 0.083 h): 472 ng/mL | concentration at 0.25 h ([2]; Cassette #2, single 18 mg/kg iv cassette dose (3 mg/kg/compound), 0.25 h): 317 ng/mL | concentration at 0.5 h ([2]; Cassette #2, single 18 mg/kg iv cassette dose (3 mg/kg/compound), 0.5 h): 266 ng/mL | concentration at 1 h ([2]; Cassette #2, single 18 mg/kg iv cassette dose (3 mg/kg/compound), 1 h): 133 ng/mL | concentration at 3 h ([2]; Cassette #2, single 18 mg/kg iv cassette dose (3 mg/kg/compound), 3 h): 16.1 ± 1.4 ng/mL | concentration at 6 h ([2]; Cassette #2, single 18 mg/kg iv cassette dose (3 mg/kg/compound), 6 h): 2.8 ± 0.4 ng/mL | concentration at 8 h [2, 4]: 1.6 ± 0.2 ng/mL | concentration at 0.083 h ([2]; Cassette #3, single 15 mg/kg iv cassette dose (3 mg/kg/compound), 0.083 h): 520 ± 69.3 ng/mL | concentration at 0.25 h ([2]; Cassette #3, single 15 mg/kg iv cassette dose (3 mg/kg/compound), 0.25 h): 324 ± 32.3 ng/mL | concentration at 0.5 h ([2]; Cassette #3, single 15 mg/kg iv cassette dose (3 mg/kg/compound), 0.5 h): 209 ± 24.1 ng/mL | concentration at 1 h ([2]; Cassette #3, single 15 mg/kg iv cassette dose (3 mg/kg/compound), 1 h): 108 ± 29.3 ng/mL | concentration at 3 h ([2]; Cassette #3, single 15 mg/kg iv cassette dose (3 mg/kg/compound), 3 h): 23.5 ± 6.4 ng/mL | concentration at 6 h ([2]; Cassette #3, single 15 mg/kg iv cassette dose (3 mg/kg/compound), 6 h): 5 ± 0.5 ng/mL | concentration at 8 h ([2]; Cassette #3, single 15 mg/kg iv cassette dose (3 mg/kg/compound), 8 h): 2.4 ± 1.7 ng/mL | concentration at 0.083 h ([2]; Cassette #4, single 15 mg/kg iv cassette dose (3 mg/kg/compound), 0.083 h): 567 ± 43.5 ng/mL | concentration at 0.25 h ([2]; Cassette #4, single 15 mg/kg iv cassette dose (3 mg/kg/compound), 0.25 h): 491 ± 32.3 ng/mL | concentration at 0.5 h ([2]; Cassette #4, single 15 mg/kg iv cassette dose (3 mg/kg/compound), 0.5 h): 325 ± 13.6 ng/mL | concentration at 1 h ([2]; Cassette #4, single 15 mg/kg iv cassette dose (3 mg/kg/compound), 1 h): 145 ± 9.5 ng/mL | concentration at 3 h ([2]; Cassette #4, single 15 mg/kg iv cassette dose (3 mg/kg/compound), 3 h): 35.3 ± 8.3 ng/mL | concentration at 6 h ([2]; Cassette #4, single 15 mg/kg iv cassette dose (3 mg/kg/compound), 6 h): 10.1 ± 3 ng/mL | concentration at 8 h ([2]; Cassette #4, single 15 mg/kg iv cassette dose (3 mg/kg/compound), 8 h): 3.7 ± 0.7 ng/mL | AUC(0-inf) [2, 7]: 467 ng·h/mL | AUC(0-inf) [2, 8]: 452 ng·h/mL | AUC(0-inf) [2, 9]: 627 ng·h/mL | Cmax [2, 7]: 472 ng/mL | Cmax [2, 8]: 520 ng/mL | Cmax [2, 9]: 567 ng/mL | half-life [2, 7]: 1.5 h | half-life [2, 8]: 1.5 h | half-life [2, 9]: 1.5 h | Mean Conc. in plasma [2, 5]: BLQ | Mean Conc. in plasma ([2]; Cassette #3, single 15 mg/kg iv cassette dose (3 mg/kg/compound), 24 h): BLQ | Mean Conc. in plasma ([2]; Cassette #4, single 15 mg/kg iv cassette dose (3 mg/kg/compound), 24 h): BLQ | Mean concentration in plasma [2, 6]: BLQ | AUC0-∞ ([2]; mouse plasma, iv Cassette #1, 3 mg/kg/compound (18 mg/kg total dose)): 532 ng·h/mL
SMILES: NC1CCC(Nc2nc(NCCCc3ccccc3)c3ncn(C4CCCC4)c3n2)CC1 (centres unmarked) [MDL 107167, reference compound]

SMILES: COC(=O)c1ccc(OC(=O)N2CCC(Nc3nc(N[C@H]4CC[C@H](N)CC4)nc4c3ncn4C3CCCC3)CC2)cc1.Cl.Cl [Compound 83, trans-4-[2-(4-Amino-cyclohexylamino)-9-cyclopentyl-9H-purin-6-ylamino]-piperidine-1-carboxylic acid 4-methoxycarbonyl-phenyl ester dihydrochloride]
Mean Red Blood Cell to Plasma Ratio [1]: 4.1 | Mean concentration in plasma ([2]; 0.083 h): 1515.7 ± 611.8 ng/mL | Mean concentration in plasma ([2]; 0.25 h): 217.9 ± 92.8 ng/mL | Mean concentration in plasma ([2]; 0.5 h): 61.3 ± 32.9 ng/mL | Mean concentration in plasma ([2]; 1 h): 14.1^a ng/ml | Mean concentration in plasma ([2]; 3 h): 4.1^a ng/ml | Mean concentration in plasma ([2]; 6 h): 1.6^a ng/ml | Mean concentration in plasma ([2]; 8 h): 6.3^a ng/ml | Mean concentration in plasma [2, 6]: BLQ
